Data reported in US20090074676A1, “Inhibition of p38 MAPK For Treatment Of Obesity” (SMITHKLINE BEECHAM CORPORATION, priority 2005, published 2009).
Entries after “also recorded” stand apart in the source; their conditions may differ.

What was measured:
3T3-L1 adipocytes = conditions: by reducing GLUT4 activity; cited from earlier work
DIO C57BL/6 mice = assay: Experiment 3: four weeks treatment of male DIO C57BL/6 mice on high fat diet (body weight, body composition, glucose); type: in vivo; conditions: PO, BID, 4 weeks
Procedure: Methods: Male C57BL/6 mice, from Jackson Laboratories, group housed, 18-19 weeks old, on high fat diet (HFD, D12331 rodent diet, 58 kcal % from fat and sucrose. Research Diets, Inc., New Brunswick, N.J.) started at 4-5 weeks old. A parallel group of mice on normal diet (ND, Purina 5001) was served as diet control. During the last 4 weeks of diet period, mice on HFD were treated with vehicle (0.5% tragacanth in 0.03N HCl), Compound 2 administered at 3, 10, and 30 mg/kg, BID, PO (10 ml/kg). Mice on ND were treated with vehicle. Mouse number in each group was 8-10. Body weight (BW), body composition, fasting blood glucose, postprandial blood glucose and insulin were measured. […] Epididymal fat pad was collected to determine PPARγ and GLUT4 gene expression.

DIO AKR mice = assay: Experiment 2: two week treatment of 24-25 weeks old male DIO AKR mice on high fat diet; type: in vivo; conditions: 10 & 30 mg/kg, PO, BID
Procedure: Compound 2 was administered for a two week treatment in 24-25 weeks old male DIO AKR mice (older). Methods: Male AKR mice, from Jackson Laboratories, group housed, 24-25 weeks old, on high fat diet (HFD, D12331 rodent diet, 58 kcal % from fat and sucrose. Research Diets, Inc., New Brunswick, N.J.) started at 4-5 weeks old. A parallel group of mice on normal diet (ND, Purina 5001) was served as diet control. During the last 2 weeks of diet period, mice on HFD were treated with vehicle (0.5% tragacanth in 0.03N HCl), Compound 2 administered at 10, and 30 mg/kg, BID, PO (10 ml/kg). Mice on ND were treated with vehicle. Mouse number in each group was 7-10. Body weight (BW), body composition, postprandial blood glucose, and fasting serum insulin were measured.

[1] = test system: diet-induced obese (DIO) AKR mice; assay: Experiment 1: four weeks treatment of 18-19 weeks old male DIO AKR mice on high fat diet (body weight, body composition, glucose, ITT); type: in vivo
Procedure: Compound 2 was administered for four weeks treatment in 18-19 weeks old male, diet-induced obese (DIO) AKR mice. Methods: Male AKR mice, from Jackson Laboratories, group housed, 18-19 weeks old, on high fat diet (HFD, D12331 rodent diet, 58 kcal % from fat and sucrose. Research Diets, Inc., New Brunswick, N.J.) started at 4-5 weeks old. A parallel group of mice on normal diet (ND, Purina 5001) was served as diet control. During the last 4 weeks of diet period, mice on HFD were treated with vehicle (0.5% tragacanth in 0.03N HCl), Compound 2 was administered at 3 mg/kg, and 10 mg/kg, and water (control for vehicle), twice daily (BID), orally (PO) at 10 ml/kg. Mice on normal diet (ND) were treated with vehicle. Mouse number in each group was 7-10. Body weight (BW) was monitored once a week. Body composition was monitored every other week by using EchoMRI™ Whole Body Composition Analyzer (Echo Medical Systems, Houston, Tex.). Fasting blood glucose was measured at 2 weeks of treatment. Postprandial blood glucose was measured at before and end of treatment. Fasting serum insulin was measured at dosing 2 weeks via orbital bleeding. Serum IL-6 was measured at the end of treatment under fasting condition. Insulin tolerance test (ITT) was also performed at end of the diet period.

SMILES	insulin-induced glucose uptake (3T3-L1 adipocytes)	blood glucose (DIO C57BL/6 mice)	lean mass (DIO C57BL/6 mice)	blood glucose (DIO AKR mice; 2 weeks)	reduction in body weight (BW) (DIO AKR mice; last 2 weeks of 20 weeks on HFD, p<0.05)	time at which the effect on BW and fat mass appeared (DIO AKR mice; more pronounced over the 2 weeks) [days]	blood glucose ([1]; 3 & 10 mg/kg, PO, BID, 4 weeks)	lean mass ([1]; 3 & 10 mg/kg, PO, BID, 4 weeks)	reduction in body weight (BW) ([1]; 3 & 10 mg/kg, PO, BID, last 4 weeks of 14 weeks on HFD, p<0.05)	response to an insulin tolerance test (ITT) ([1]; end of diet period, insulin i.p. 0.75 U/kg)
C[S+]([O-])c1ccc(-c2nc(-c3ccc(F)cc3)c(-c3ccncc3)[nH]2)cc1 (stereo not shown) [Compound 1, 4-(4-Fluorophenyl)-2-(4-methylsulfinylphenyl)-5-(4-pyridyl)imidazole]	reduced insulin-induced glucose uptake	–	–	–	–	–	–	–	–	–
COc1nccc(-c2c(-c3ccc(F)cc3)ncn2[C@H]2CC[C@H](O)CC2)n1 [Compound 2, trans-1-(4-hydroxycyclohexyl)-4-(4-fluorophenyl)-5-[(2-methoxy)pyrimidin-4-yl]imidazole]	–	no effect; also recorded: did not have any significant effect	no effect	no effect; also recorded: did not have any significant effect	4-9%	4	no effect; also recorded: did not have any significant effect	no effect	4-9%	did not have any significant effect
